Source: patent publication US9045450B2, “Method for chemical synthesis of antrocin and use thereof for suppressing non-small cell lung cancer” (KAIYEW INVESTMENT CORP., priority 2011, dated 2015)
“Also recorded” adds a separate entry of the source.

Columns and labels:
[1] = test system: normal human bronchial epithelial cells (BEAS-2B); assay: Cytotoxicity, sulforhodamine B; format: cell-based; conditions: antrocin 0.5-10 μM, two days, FIG. 4 (A)
Experimental: (§1) Human lung cancer cell lines (CL1-0, CL1-5, H1975, H441, PC9, A549) and human bronchial epithelia cell lines (BEAS-2B) were obtained from the Institute of Clinical Medicine, Taipei Medical University. The cells were grown and maintained in DMEM medium (Dulbecco's Modified Eagle's Medium and RPMI basal medium supplemented with 10% fetal bovine serum, 2 mM glutamine, […] streptomycin, and 100 U/ml penicillin in a wet incubator at 5% CO2.
Human lung cancer cells (CL1-0, CL1-5, H1975, H441, PC9, A549) and human bronchial epithelial cells (BEAS-2B) were seeded in 96-well culture plates (2000 cells/well) and incubated overnight in 100 μl complete DMEM. Equal amount of complete DMEM sample containing 50 μl antrocin (0.5-10 μM) was placed in other wells of the culture plates. Further, 100 μl complete DMEM sample was also placed in wells as the control group. After two days, total number of human cells in each well was measured using sulforhodamine B (a fluorescent protein dye). Briefly, human cells were fixed in 10% trichloroacetic acid and stained with 0.4% sulforhodamine B. After being stained for 20 minutes, the human cells were washed with 1% acetic acid, and then sulforhodamine B, which was bound with human cells, was dissolved in 10 mM tris base. The optical density was measured at 562 nm by a microtiter plate detector. […]

[2] = test system: human non-small cell lung cancer cells (CL1-0, CL1-5, H1975, H441, PC9, A549); assay: Cytotoxicity / cell proliferation, sulforhodamine B; format: cell-based; conditions: NSCLC cell lines, antrocin 0.5-10 μM, two days, FIG. 4 (A)
Experimental: as §1
(§2) Lung cancer cell were grown in a medium supplemented with 10% fetal bovine serum until the cells grew to approximately 80% of their full-blown size. Old culture solution was drained, the lung cancer cells were washed with PBS buffer solution (phosphate buffered saline), and 10 ml of serum-free culture medium was added. Different pharmaceutical drugs were added according to experimental purposes, all reactions were carried out in an incubator at 37° C.
(§3) Human lung cancer cells (CL1-0, CL1-5, H1975, H441, PC9, A549) and human bronchial epithelial cells (BEAS-2B) were seeded in 96-well culture plates (2000 cells/well) and incubated overnight in 100 μl complete DMEM. […] After two days, total number of human cells in each well was measured using sulforhodamine B (a fluorescent protein dye). […] The optical density was measured at 562 nm by a microtiter plate detector. […]

[3] = test system: H1975 cells; assay: as above; format: cell-based, human; conditions: H1975, antrocin 0.5-10 μM, two days, FIG. 4 (A)
Experimental: as §1, §2, §3

[4] = test system: H441 cells; assay: as above; format: cell-based, human; conditions: H441, antrocin 0.5-10 μM, two days, FIG. 4 (A)
Experimental: as §1, §2, §3

[5] = test system: H441-L2G cells; assay: Lung tumorigenesis in vivo, bioluminescence imaging and survival; design: species or system non-obese diabetic/severe combined immunodeficient mice; conditions: for tumor growth: daily intraperitoneal injection
Experimental: […] cells (6×10^5/100 μl PBS) were intravenously injected into immunodeficient mice via lateral tail vein. Antrocin treatments (low dose of 5 mg/kg/day and high dose of 10 mg/kg/day) were performed by daily intraperitoneal injection into tumor-bearing mice over a period of four weeks. Weekly observations were performed and data were recorded for (A) VIS images, (B) Tumor growth, (C) Body weights, and (D) Survival curves.
(§4) The present invention further investigated anticancer effect of antrocin in vivo. H441-L2G cells expressing firefly luciferase and green fluorescent protein were implanted by intravenous injections via the lateral tail vein (6×10^5/100 μl PBS) into non-obese diabetic/severe combined immunodeficient mice. Daily intraperitoneal injections of antrocin (two groups of mice, a low dose of 5 mg/kg/day and a high dose of 10 mg/kg/day) were given over a period of four weeks to observe tumor growth.
Firefly luminescence genes (firefly luciferase) was introduced into H441 lung cancer stem cells by transgenesis, lung cancer cells (containing firefly luminescence genes) were then isolated from H441 lung cancer stem cells by FACS (Fluorescence-activated cell sorting) and implanted into immunodeficient mice subcutaneously or into the circulation system via the tail vein. IVIS imaging system (IVIS® Imaging System 200 Series, Xenogen) was used in the present embodiment for bioluminescent imaging. All mice were introduced with 150 mg/kg D-luciferin by intraperitoneal injection, after 10 minutes the mice were fixed in the darkroom of the IVIS200, the highly sensitive CCD camera of the IVIS 200 was used to detect the cold light radiated by firefly luminescence genes in H441 cancer cells. All mice were imaged for 120 seconds and the imaging time was shortened when the signal strength was saturated. All mice were anesthetized (2% isoflurane and 98% oxygen gas) and unconscious throughout the entire imaging process. Tumor sizes and signal strength radiated by the cold-light were compared and analyzed by using a software package of the IVI200. The inhibitory effect of antrocin on human lung cancer cells was assessed by using this bio-illumination-imaging system.
as §4, with “investigated the” for “investigated”, “immunodeficiency” for “immunodeficient”, “small” for “low”, “large” for “high”

[6] = test system: H441 cells; assay: Apoptosis, flow cytometry; format: cell-based, human; conditions: H441, antrocin treatment for 48 hours, FIG. 4 (B)
[7] = test system: breast cancer cells; conditions: natural antrocin isolated from Antrodia; Rao et al., 2011; cited from earlier work

C=C1CC[C@H]2C(C)(C)CCC[C@@]23C(=O)OC[C@@H]13 [antrocin]
cytotoxicity against normal human bronchial epithelial cells [1]: no cytotoxicity | inhibitory effect on cancer cell proliferation [2]: significant inhibitory effect | inhibition of cancer cell growth/proliferation [3]: most robust inhibitions | inhibition of cancer cell growth/proliferation [4]: most robust inhibitions | increase of median survival time ([5]; at the end of the experiment (the fiftieth day)): at least 60% | mice that survived for longer than 50 days ([5]; low dose 5 mg/kg/day): 75% | tumor growth ([5]; low dose 5 mg/kg/day, after two weeks): inhibited after two weeks in half of the mice | tumor growth ([5]; low dose 5 mg/kg/day, third week): tumor growth was observed in most of these mice | median survival ([5]; treated group, control group 28 days, FIG. 7 (D)): > 50 days | number of cells in early and late (final) stage of apoptosis [6]: increase in the number of cells in early and late stage of apoptosis in a dose-dependent fashion; also recorded: increased significantly in a dose-dependent fashion | inhibition of cell proliferation in breast cancer cells [7]: inhibited the cell proliferation; also recorded: effectively inhibited cell proliferation
